# Reference: US20250099487A1, “COMPOSITION FOR PREVENTING OR TREATING PULMONARY FIBROSIS, COMPRISING TAURODEOXYCHOLIC ACID OR PHARMACEUTICALLY ACCEPTABLE SALT THEREOF AS ACTIVE INGREDIENT” (SHAPERON INC., priority 2022, published 2025)
# Tests used:
# [1] = system: bleomycin-induced idiopathic pulmonary fibrosis animal model; experiment: Histopathological evaluation of pulmonary fibrosis (Crossman's Trichrome, Matsuse modification of the Ashcroft score); type: in vivo, C57BL/6 mice
# Experimental: Specifically, 9-week-old C57BL/6 mice were purchased and allowed to adapt to their environment for one week before the experiment was conducted. […] Water was provided ad libitum, and sterilized feed was used, allowing free access to food. […] The control group was administered saline instead of bleomycin and received a vehicle (0.5% CMC (carboxymethylcellulose) solution) at a dose of 10 mL/kg orally twice daily. Specifically, the mice in each group were sacrificed upon completion of the experiment, and their lungs were excised. The excised lungs were embedded in paraffin for histopathological evaluation and stained according to the Crossman's Trichrome method (Gray P. The Microtomist's Formulary and Guide. Published by Robert E. Krieger Publishing Co.). The histological changes in the lungs were assessed using the Matsuse modification of the Ashcroft score, as presented in Table 2 (Ashcroft H et al. J Clin Pathol (1988) 41:467-70; Matsuse T et al. Eur Respir J (1999) 13:71-77). [table]
# [2] = system: human lung fibroblast cell line MRC5; experiment: qPCR of fibrosis-related factors in TGF-β-treated MRC5 cells; type: cell-based; conditions: MRC5, TGF-β1 5 ng/mL, 48 hours
# Experimental: Specifically, the human lung fibroblast cell line MRC5 was seeded at a density of 2×10^5 cells per well in a 6-well plate and incubated overnight to allow cell attachment. Subsequently, the medium was removed, and the cells were treated with TGF-β1 at a concentration of 5 ng/mL along with HY209 or TUDCA at concentrations of 0, 0.1, 1, and 10 μM, and cultured for 48 hours before collecting the cells. Following this, RNA was extracted from the cells using the RNeasy Mini Kit (QIAGEN), and cDNA was synthesized using Maxime™ RT PreMix (LiliF Diagnostic). qPCR measurements were conducted using Power SYBR™ Green PCR Master Mix (Thermo Scientific) in accordance with the manufacturer's instructions. Additionally, primers specific for Col1α1, α-SMA, and PAI-1 were utilized to assess their expression, and GAPDH was measured as the internal standard.
# TNF-α = experiment: Inhibition of TNF-α production in PMA-differentiated U937 macrophages induced with Pam2CSK4 (ELISA); type: cell-based, human; conditions: for IC50: Homo sapiens, U-937, U937 macrophages, Pam2CSK4 50 ng/mL, 4 hours
# Experimental: (§1) To evaluate the anti-inflammatory efficacy of HY209 and TUDCA, the human monocytic cell line U937 was treated with PMA (phorbol 12-myristate 13-acetate) to induce differentiation into macrophages.
# Additionally, the human monocytic cell line U937 was cultured at a density of 5×10^6 cells in a 100 mm dish containing RPMI1640 medium supplemented with 4 nM PMA (phorbol 12-myristate 13-acetate) for 5 hours to induce differentiation into macrophages. The differentiated macrophages were then seeded into a 96-well plate at a density of 50,000 cells per well and incubated for 24 hours to allow for rest. Following this, the medium was replaced with serum-free medium, and the cells were cultured for an additional 12 hours. The medium was then removed from each well, and the cells were treated with 50 ng/mL of Pam2CSK4 (Pam2CysSerLys4) along with HY209 or TUDCA at varying concentrations (HY209: 10, 4, 2, 1, 0.5, 0.25, 0.125, 0.0625, 0.03125 μM; TUDCA: 100, 50, 25, 12.5, 6.25, 3.125, 1.562, 0.76 μM) for 4 hours. The supernatants were then collected, and TNF-α levels were measured using a TNF-α ELISA kit (R&D Systems) according to the manufacturer's instructions (FIG. 7b).
# IL-1β = experiment: Inhibition of IL-1β production in PMA-differentiated U937 macrophages induced with BzATP (ELISA); type: cell-based, human; conditions: for IC50: Homo sapiens, U-937, U937 macrophages, 12 h pretreatment, BzATP 300 μM 12 h
# Experimental: as §1
# Specifically, the human monocytic cell line U937 was seeded at a density of 70,000 cells per well in a 96-well plate and cultured for 24 hours in RPMI1640 medium containing 50 nM PMA (phorbol 12-myristate 13-acetate) to induce differentiation into macrophages. The medium was then removed from each well, and HY209 or TUDCA was administered at varying concentrations (HY209: 1, 0.5, 0.25, 0.125, 0.0625, 0.0312, 0.0156, 0.0078 μM; TUDCA: 1000, 316, 100, 31.6, 10, 3.16, 0.316, 0.1, 0.0316, 0.01, 0.00316 μM) for 12 hours. Subsequently, BzATP (2′(3′)-O-(4-Benzoylbenzoyl)adenosine 5′-triphosphate) was added to each well to achieve a final concentration of 300 μM, and the cells were incubated for an additional 12 hours. The supernatants were then collected, and IL-1β levels were measured using an IL-1β ELISA kit (R&D Systems) according to the manufacturer's instructions (FIG. 7a).
# α-SMA = experiment: Immunohistochemical analysis of α-SMA area in lung tissue; type: in vivo, C57BL/6 mice
# Experimental: (§2) Specifically, 9-week-old C57BL/6 mice were purchased and allowed to adapt to their environment for one week before the experiment was conducted. The experimental animals were maintained under conditions of 22±2° C., 55±10% relative humidity, and a 12-hour light/dark cycle. Water was provided ad libitum, and sterilized feed was used, allowing free access to food.
# (§3) The pulmonary fibrosis group was orally administered a vehicle (0.5% CMC (carboxymethylcellulose) solution) at a dose of 10 mL/kg twice daily, while the experimental group was orally administered HY209 formulated in a 0.5% CMC solution to achieve final concentrations of 10, 30, and 60 mg/kg, also twice daily. The comparison group (Nintedanib administration group) was orally administered Nintedanib, formulated in a vehicle (0.1% Natrosol; Hydroxyethylcellulose solution) to achieve a final concentration of 60 mg/kg, twice daily. The pulmonary fibrosis group (Natrosol administration group) for comparison with the Nintedanib administration group received 10 mL/kg of 0.1% Natrosol solution orally twice daily. The control group was administered saline instead of bleomycin and received a vehicle (0.5% CMC (carboxymethylcellulose) solution) at a dose of 10 mL/kg orally twice daily.
# Specifically, the mice in each group were sacrificed upon completion of the experiment, and their lungs were excised. The excised lungs were embedded in paraffin for histopathological evaluation, and sections were obtained and mounted onto slides. Subsequently, the expression distribution of the fibrosis-related factor α-SMA in the lung tissue was evaluated.
# Immunohistochemical analysis of α-SMA was performed using polyclonal anti-α-SMA antibodies. Antigen retrieval was conducted using Target Retrieval Solution pH 6 (PT Link module, DAKO). […] The de novo accumulation level of α-SMA was evaluated using digital image analysis software (Visiopharm®). The results were expressed as the percentage (%) of the α-SMA area.
# [3] = system: bleomycin-induced idiopathic pulmonary fibrosis animal model; experiment: Lung weight changes in bleomycin-induced idiopathic pulmonary fibrosis animal model; type: in vivo, C57BL/6 mice
# Experimental: Specifically, 9-week-old C57BL/6 mice were purchased and allowed to adapt to their environment for one week before the experiment was conducted. […] Water was provided ad libitum, and sterilized feed was used, allowing free access to food. […] The control group was administered saline instead of bleomycin and received a vehicle (0.5% CMC (carboxymethylcellulose) solution) at a dose of 10 mL/kg orally twice daily. Specifically, the mice in each group were sacrificed upon completion of the experiment, and their lungs were excised. The weights of the excised lungs were then measured.
# [4] = Body weight changes in bleomycin-induced idiopathic pulmonary fibrosis animal model; type: in vivo, C57BL/6 mice; conditions: HY209 administration group vs control group; oral BID Day 7-Day 21; measured daily
# Experimental: as §2, §3
# Specifically, the body weight of the mice in each group was measured daily throughout the course of the experiment.
# [5] = 10 mg/kg oral BID Day 7-21, compared to the pulmonary fibrosis group
# [6] = 60 mg/kg oral BID Day 7-21, compared to the pulmonary fibrosis group
# [7] = 60 mg/kg oral BID Day 7-21, compared to the Natrosol administration group
SMILES,Col1α1 expression ([2]; 0.1 μM),PAI-1 expression ([2]; 0.1 μM),α-SMA expression ([2]; 0.1 μM),Col1α1 expression ([2]; 1 μM),PAI-1 expression ([2]; 1 μM),α-SMA expression ([2]; 1 μM),PAI-1 expression ([2]; 10 μM),α-SMA expression ([2]; 10 μM),IC50 (TNF-α),IC50 (IL-1β),further results
"C[C@H](CCC(=O)NCCS(=O)(=O)O)[C@H]1CC[C@H]2[C@@H]3CC[C@@H]4C[C@H](O)CC[C@]4(C)[C@H]3C[C@H](O)[C@]12C [HY209, sodium taurodeoxycholate]",reduced the expression,inhibition,inhibition,reduced the expression,inhibition,inhibition,inhibition,inhibition,360 nM,44 nM,"pulmonary fibrosis (Ashcroft score) [1, 5]: statistically significantly decreased; pulmonary fibrosis (Ashcroft score) [1, 6]: statistically significantly decreased; Col1α1 expression ([2]; 10 μM): reduced the expression; IC50 for TNF-α, times lower than that of TUDCA (TNF-α; HY209 vs TUDCA): 36 times; IC50 for IL-1β, times lower than that of TUDCA (IL-1β; HY209 vs TUDCA): 34 times; α-SMA area (α-SMA; 10 mg/kg oral BID Day 7-21, compared to the pulmonary fibrosis group and the Natrosol administration group): significantly decreased; α-SMA area (α-SMA; HY209 60 mg/kg oral BID Day 7-21, compared to the pulmonary fibrosis group and the Natrosol administration group): significantly decreased; lung weight [3, 5]: statistically significantly decreased; lung weight [3, 6]: statistically significantly decreased; body weight changes [4]: no significant differences"
"COC(=O)c1ccc2c(c1)NC(=O)/C2=C(\Nc1ccc(N(C)C(=O)CN2CCN(C)CC2)cc1)c1ccccc1 [Nintedanib, reference compound]",–,–,–,–,–,–,–,–,–,–,"pulmonary fibrosis (Ashcroft score) [1, 7]: significant reduction; α-SMA area (α-SMA; Nintedanib 60 mg/kg oral BID Day 7-21, compared to both the pulmonary fibrosis group and the Natrosol administration group): significant reduction; lung weight [3, 7]: significant decrease"
"C[C@H](CCC(=O)NCCS(=O)(=O)O)[C@H]1CC[C@H]2[C@@H]3[C@@H](O)C[C@@H]4C[C@H](O)CC[C@]4(C)[C@H]3CC[C@]12C [TUDCA, tauroursodeoxycholic acid, reference compound]",increase in expression,did not demonstrate inhibitory effects,did not demonstrate inhibitory effects,increase in expression,did not demonstrate inhibitory effects,did not demonstrate inhibitory effects,inhibitory effects,inhibitory effects,13100 nM,1500 nM,–
